What was measured:
[1] = test system: primary AML samples (lineage-depleted umbilical cord blood cells as healthy counterpart); test: Clonogenicity assay; assay type: cell-based, human
Procedure: (§1) 1,000 cells of AML cell lines or 50,000 primary cells (both AML and lin-depleted UCB) were treated at the indicated concentration for 18 h, and cultured in 1 mL of MethoCult H4034 Optimum (StemCell Technologies, Vancouver, BC, Canada).
(§2) Colonies were screened based on morphology and cellularity at day 7 (cell lines) […]
(§3) Calcium mobilization assay
1 x 10^6 cells per mL were loaded for 30’ at 37 °C with the Fura-2-AM probe (Thermo Fisher) at a final 2 µM concentration in pre-warmed calcium- and magnesium-free Hanks BSA solution. Cells were then washed and resuspended in Hanks BSA solution with calcium and magnesium at 3 x 10^5 cells per mL. In parallel, 50µL of drugs in Hanks BSA solution with calcium and magnesium were added to 96-well black wall clear bottom plates and background fluorescence was read at Ex340/Em508 and Ex380/Em508. Cells were then added to the plate (50µL/well) and fluorescence was acquired at indicated timepoints using a Synergy HT Multi-Detection Microplate Reader (BioTek). For the analysis, all values were subtracted their corresponding background fluorescence, and the ratio 340/380 was calculated. Finally, ratios were normalized to vehicle-treated […]
(§4) Semi-Quantitative Real Time PCR

[2] = test system: KG-1; test: 7AAD and annexin-V staining, flow cytometry; assay type: cell-based; conditions: 10 µM, 24 h, representative plot
Procedure: (§5) Seahorse studies were performed using the Agilent Seahorse XF Real-Time ATP Rate Assay Kit. Briefly, MonoMac1 and HL60 cells were suspended in complete medium at a concentration of 5 × 10^5 cells per ml and treated with EDK-87/EDK-88 with the indicated compounds for 18 h. Cells were washed and suspended in Seahorse medium (Seahorse XF medium with 2 mM glutamine, 10 mM glucose, 2 mM pyruvate) at a concentration of 1.4 × 10^6 (Mono Mac1) and 2.4 × 10^6 (HL60) cells per mL; 50 μL per well were seeded in 96-well Seahorse plates precoated with polylysine, centrifuged, and left to adhere for 20 min at 37 °C before adding prewarmed Seahorse medium to a final volume of 180 μL per well. Basal OCR and ECAR were measured, and the ATP rate assay was performed with the sequential injection of 1.5 μM oligomycin and 0.5 μM rotenone/antimycin A. A detailed description of this protocol was provided by the manufacturers. Mitochondrial ROS was quantified using the MitoSOX Red Mitochondrial Superoxide Indicator (Thermo Fischer Scientific, Waltham, MA, USA), as previously described. The activation of executive caspases was determined using CaspaseGlo® 3/7 Assay (Promega), following the manufacturer’s recommendations. The detection of Annexin-V staining was also described previously.

[3] = test system: MonoMac-1; test: 7AAD and annexin-V staining, flow cytometry; assay type: cell-based; conditions: 10 µM, 24 h, representative plot
Procedure: as §5

[4] = test system: AML patient samples; test: Combination with ATO, viability by flow cytometry and Bliss synergy; assay type: cell-based, human; conditions: for Effectivity (%Viability reduction): 48 h
Procedure: (§6) First, 2 × 10^5 (72 h assays in cell lines (Supplementary File S1)), 3 × 10^5 (48 h assays in cell lines) or 7.5 × 10^5 (primary AML, healthy donor buffy coats) cells per mL were cultured in 96-well plates, and all drugs were added at the indicated concentrations. In α-tocopherol experiments, cells were treated with growing concentrations of α-tocopherol and EDK drugs for 48 h. In the NAC and 3MA experiments, treatment was simultaneous with EDK compounds. In glucose deprivation experiments, cells were cultivated with a standard medium (glucose high, 2 g/L), a standard medium without glucose, or a standard medium with galactose (2 g/L) and without glucose. Cell viability was measured via 7-AAD (eBioscience) exclusion and Hoechst33342 (Sigma-Aldrich, St. Louis, MO, USA) positivity staining via flow cytometry, and the cell count was obtained through volume. In the experiments with the primary cells, analyses were performed inside the blast population as detected via blast gates (CD45^low SSC^int). For solid tumor cell lines, viability was analyzed using CellTiter-Glo® Luminescent Cell Viability Assay (Promega).
(§7) Synergy was calculated using SynergyFinder 2.0 with the Bliss reference model.

[5] = test system: healthy donor blood samples (BC: buffy coat); test: as above; assay type: cell-based, human; conditions: 48 h
Procedure: as §6, §7

[6] = test system: HL60; test: Combination with ATO in AML cell lines, viability and Bliss synergy; assay type: cell-based; conditions: upper maps (HL60), 48 h
Procedure: as §6, §7

[7] = test system: intracellular calcium in HL60 cells; test: Calcium mobilization assay (Fura2 probe); assay type: cell-based; conditions: 10 µM EDK-87/EDK-88, 50 µM chloroquine
Procedure: as §1, §2, §3
1 x 10^6 cells per mL were loaded for 30’ at 37 °C with the Fura-2-AM probe (Thermo Fisher) at a final 2 µM concentration in pre-warmed calcium- and magnesium-free Hanks BSA solution. Cells were then washed and resuspended in Hanks BSA solution with calcium and magnesium at 3 x 10^5 cells per mL. In parallel, 50µL of drugs in Hanks BSA solution with calcium and magnesium were added to 96-well black wall clear bottom plates and background fluorescence […]
Cells were then added to the plate
(50µL/well) and fluorescence was acquired at indicated timepoints using a Synergy HT Multi-Detection Microplate Reader (BioTek). For the analysis, all values were subtracted their corresponding background fluorescence, and the ratio 340/380 was calculated. Finally, ratios were normalized to vehicle-treated […]
as §4

[8] = ADME-Tox: solubility; assay type: physicochemical
Procedure: (§8) All ADMET studies were performed in Eurofins Discovery Services (CEREP laboratories, Celle-Lévescault France). The pharmacokinetic studies were performed in Draconis Pharma SL (Barcelona, Spain) in CD-1 mice treated with 30 mg/kg EDK87 or EDK88 via SC or OG. Blood was collected by cardiac puncture at 0.5, 1, 2, 4, or 24 h.

[9] = target: T1, hERG (Homo sapiens, UniProt Q12809); test: In vitro hERG inhibition; assay type: biochemical
T1 construct: Eurofins Discovery Services (CEREP laboratories)
T1 sequence (Q12809 whole entry): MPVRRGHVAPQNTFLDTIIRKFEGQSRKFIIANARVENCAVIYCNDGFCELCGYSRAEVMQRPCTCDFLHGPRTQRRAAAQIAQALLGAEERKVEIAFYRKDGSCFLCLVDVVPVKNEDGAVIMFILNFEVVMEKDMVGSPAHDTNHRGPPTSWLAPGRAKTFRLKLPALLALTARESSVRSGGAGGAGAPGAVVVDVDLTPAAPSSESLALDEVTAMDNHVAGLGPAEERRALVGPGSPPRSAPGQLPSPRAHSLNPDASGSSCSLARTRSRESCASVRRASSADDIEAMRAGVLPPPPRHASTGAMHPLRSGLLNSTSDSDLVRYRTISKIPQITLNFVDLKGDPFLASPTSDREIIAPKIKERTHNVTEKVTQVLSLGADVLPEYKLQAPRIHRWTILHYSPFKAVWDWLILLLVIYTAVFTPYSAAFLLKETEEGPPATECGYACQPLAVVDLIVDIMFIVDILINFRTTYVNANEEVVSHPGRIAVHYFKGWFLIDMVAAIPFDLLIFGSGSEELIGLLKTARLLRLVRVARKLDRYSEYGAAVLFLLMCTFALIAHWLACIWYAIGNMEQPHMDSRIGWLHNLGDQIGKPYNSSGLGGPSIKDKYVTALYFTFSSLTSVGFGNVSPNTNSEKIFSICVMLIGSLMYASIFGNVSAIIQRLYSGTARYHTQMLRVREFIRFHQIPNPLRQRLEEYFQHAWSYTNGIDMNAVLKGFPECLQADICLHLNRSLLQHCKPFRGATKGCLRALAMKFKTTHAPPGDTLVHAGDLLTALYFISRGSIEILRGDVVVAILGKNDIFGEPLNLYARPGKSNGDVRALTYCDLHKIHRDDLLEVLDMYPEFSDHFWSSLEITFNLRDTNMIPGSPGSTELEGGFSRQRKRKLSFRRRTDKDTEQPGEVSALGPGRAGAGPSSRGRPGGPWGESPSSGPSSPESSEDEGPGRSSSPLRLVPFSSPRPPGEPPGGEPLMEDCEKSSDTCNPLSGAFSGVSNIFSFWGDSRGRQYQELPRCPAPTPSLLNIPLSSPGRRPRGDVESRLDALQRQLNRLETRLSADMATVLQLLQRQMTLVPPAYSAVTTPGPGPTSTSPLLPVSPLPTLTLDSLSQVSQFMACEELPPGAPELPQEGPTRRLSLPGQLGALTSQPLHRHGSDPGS
Procedure: as §8

CN1CCC(=C2c3ccccc3-c3c2sc2ccccc32)CC1 [EDK-87]
clonogenicity, effect in AML ([1]; primary AML samples): 77.9% ± 9.2
therapeutic window (clonogenicity) ([1]; primary AML vs lineage-depleted umbilical cord blood): 3.2
Q1 of 7AAD/annexin V plot [2]: 0.61
Q2 of 7AAD/annexin V plot [2]: 10.0
Q3 of 7AAD/annexin V plot [2]: 50.3
Q4 of 7AAD/annexin V plot [2]: 39.1
Q1 of 7AAD/annexin V plot [3]: 2.96
Q2 of 7AAD/annexin V plot [3]: 9.41
Q3 of 7AAD/annexin V plot [3]: 21.7
Q4 of 7AAD/annexin V plot [3]: 65.9
synergy with ATO ([4]; AML cell lines and three primary AML samples): highly synergistic
Effectivity (%Viability reduction) ([4]; AML#63, single agent 5 µM): -5%
Effectivity (%Viability reduction) ([4]; AML#63, single agent 10 µM): -19%
Effectivity (%Viability reduction) ([4]; AML#98, single agent 1 µM): -9%
Effectivity (%Viability reduction) ([4]; AML#98, single agent 5 µM): 0%
Effectivity (%Viability reduction) ([4]; AML#98, single agent 10 µM): 8%
Effectivity (%Viability reduction) ([4]; AML#133, single agent 1 µM): -9%
Effectivity (%Viability reduction) ([4]; AML#133, single agent 5 µM): 3%
Effectivity (%Viability reduction) ([4]; AML#133, single agent 10 µM): 19%
Effectivity (%Viability reduction) ([5]; BC#1, single agent 1 µM): 0%
Effectivity (%Viability reduction) ([5]; BC#1, single agent 5 µM): 4%
Effectivity (%Viability reduction) ([5]; BC#1, single agent 10 µM): 19%
Effectivity (%Viability reduction) ([5]; BC#2, single agent 1 µM): 0%
Effectivity (%Viability reduction) ([5]; BC#2, single agent 5 µM): 4%
Effectivity (%Viability reduction) ([5]; BC#2, single agent 10 µM): 14%
Effectivity (%Viability reduction) ([6]; EDK compound alone 1 µM): 18%
Effectivity (%Viability reduction) ([6]; EDK compound alone 3 µM): 30%
Effectivity (%Viability reduction) ([6]; EDK compound alone 10 µM): 84%
intracellular calcium mobilization [7]: few changes in calcium release
solubility as compared to EDK-88 [8]: lower
hERG inhibition [9]: concerning results

— publication PMC10047683, “A Novel Family of Lysosomotropic Tetracyclic Compounds for Treating Leukemia” (Cancers, 2023)
